Drawing on US8722648B2, “Liquid pharmaceutical form of alkylphosphocholine and method for preparing same” (priority 2009, dated 2014), this text covers solubility for one compound.

What is called solubility is how much of the substance goes into solution per volume. Low readings indicate a poorly soluble substance, high ones a readily soluble substance.

A short description of the series: Solubility of hexadecylphosphocholine in co-solvent systems at 25° C. It counts as physicochemical. Conditions: aqueous with cosolvent or surfactant or cyclodextrin. The text has this: The alkylphosphocholines are soluble in water, ethanol and methanol, but there are accurate bibliography data missing. […] For example, the solubility of alkylphosphocholines is sufficiency high in glycols and glycol ether. The improvement of alkylphosphocholines solubility is observed in propylene glycol-hexylene glycol-water mixtures as the solubility of alkylphosphocholines increases with increasing hexylene glycol concentration. The maximum is at 50% hexylene glycol level. […] The alkylphosphocholines solubility response is linear in the propylene glycol-concentration range 40÷60% in the co-solvent mixture. The addition of Transcutol P to the co-solvent mixture increased the solubility of alkylphosphocholines as a function of the concentration of Transcutol P, which may be due to a co-solvency effect. The functions of Transcutol P are simultaneously solubilizer and penetration enhancer to enable the active agent to cross the barrier of the stratum corneum.

≈ marks a conversion by molar mass, not a printed value.

Regarding `CCCCCCCCCCCCCCCCOP(=O)([O-])OCC[N+](C)(C)C` [hexadecylphosphocholine], the solubility reads like this: (hexylene glycol 22, propylene glycol 44, Transcutol P 2, water 32 % v/v) 153 mg/mL (≈ 375 mM); (co-solvent system (hexylene glycol/propylene glycol/water), hexylene glycol 22, propylene glycol 44, Transcutol P 0, water 34 % v/v) 138 mg/mL (≈ 339 mM); (co-solvent system (hexylene glycol/water), hexylene glycol 22, propylene glycol 0, Transcutol P 0, water 78 % v/v) 119 mg/mL (≈ 291 mM).
